One assay concerns the target T1, 5-HT2 receptors (Rattus norvegicus, UniProt P14842).
T1 construct: cortical tissue is dissected and weighed; from tissue; host or cells: cortex of male Wistar rats, crude membranes
The experiment in a line: Inhibition of 3H-ketanserin binding to 5-HT2 receptors in rat cortex in vitro. The note with it: for IC50: 3H-Ketanserin 0.5 nM, rat cortex, 37° C., 30 min, read-out: Receptor Binding, IC50 5-HT2 3H-Ket. The method, then:
Method in Hyttel, Pharmacology & Toxicology, 61, 126-129, 1987.
Male Wistar (Mol:Wist) rats (125-250 g) are sacrificed and cortical tissue is dissected and weighed. The tissue is homogenized (Ultra Turrax, 10 sec.) in 10 ml of ice-cold 50 mM tris buffer pH 7.7 (at 25° C.). The centrifuge glassware used in this step has been rinsed by sonication for 10 min. in ethanol. The homogenate is centrifuged twice at 20,000 g for 10 min. at 4° C. with rehomogenization of the pellet in 10 ml ice-cold buffer. The final pellet is homogenized in 500 vol (w/v) ice-cold buffer.
Incubation tubes kept on ice in triplicate receive 100 μl of drug solution in water (or water for total binding) and 2000 μl of tissue suspension (final tissue content corresponds to 4 mg original tissue). […] After incubation for 30 min. the samples are filtered under vacuum (0-50 mBar) through Whatman GF/F filters (25 mm). The tubes are rinsed with 5 ml ice-cold buffer which are then poured on the filters. Thereafter, the filters are washed with 2×5 ml of buffer. The filters are placed in counting vials and 4 ml of appropriate scintillation fluid (e.g. Picofluor™15) are added. After shaking for 1 h and storage 2 hrs in the dark the content of radioactivity is determined by liquid scintillation counting. Specific binding is obtained by subtracting the nonspecific binding in the presence of 1 μM mianserin.
(§1) For determination of the inhibition of binding five concentrations of drugs covering 3 decades are used.
The IC50 value is determined as the concentration at which the binding is 50% of the total binding in control samples minus the nonspecific binding in the presence of 1 μM mianserin.

A further assay has as its target T2, dopamine D-2 receptors (Rattus norvegicus, UniProt P61169).
T2 construct: striatal tissue is dissected and weighed; from tissue; host or cells: corpus striatum of male Wistar rats, crude membranes
The experiment in a line: Inhibition of 3H-spiperone binding to dopamine D-2 receptors in rat corpus striatum in vitro. The note with it: for IC50: 3H-spiperone 0.5 nM, rat corpus striatum, 37° C., 10 min, read-out: Receptor Binding, IC50 DA D-2 3H-Spi. The method, then: INHIBITION OF ^3 H-SPIPERONE BINDING TO DOPAMINE D-2 RECEPTORS IN RAT CORPUS STRIATUM IN VITRO
By this method the inhibition by drugs of the binding of ^3 H-spiperone (0.5 nM) to dopamine D-2 receptors in membranes from rat corpus striatum is determined in vitro.
Male Wistar (Mol:Wistar) rats (125-250 g) are sacrificed and striatal tissue is dissected and weighed. The tissue is homogenized (Ultra Turrax, 10 sec.) in 10 ml of ice-cold 50 mM K-phosphate buffer pH 7.4 (at 25° C.). The homogenate is centrifuged twice at 20,000 g for 10 min. at 4° C. with rehomogenization of the pellet in 10 ml ice-cold buffer. The final pellet is homogenized in 1300 vol (w/v) ice-cold buffer.
Incubation tubes kept on ice in triplicate receive 100 μl of drug solution in water (or water for total binding) and 4000 μl of tissue suspension (final tissue content corresponds to 3.08 mg original tissue). The binding experimental is initiated by addition of 100 μl of ^3 H-spiperone (final concentration 0.5 nM) and by placing the tubes in a 37° C. water bath. After incubation for 10 min. the samples are filtered under vacuum (0-50 mBar) through Whatman GF/F filters (25 mm). The tubes are rinsed with 5 ml ice-cold buffer which are then poured on the filters. Thereafter, the filters are washed with 2×5 ml of buffer. The filters are placed in counting vials and 4 ml of appropriate scintillation fluid (e.g. Picofluor ™15) are added. After shaking for 1 h and storage 2 hrs in the dark the content of radioactivity is determined by liquid scintillation counting. Specific binding is obtained by subtracting the nonspecific binding in the presence of 10 μM of 6,7-ADTN.
as §1
^3 H-Spiperone=[phenyl-4-^3 H]-spiperone from Amersham International plc. England, specific activity 15-25 Ci/mmol.

Another assay has as its system α1 adrenoceptors. The experiment in a line: Inhibition of 3H-prazosin binding to α1 adrenoceptors in rat brain in vitro. The following applies: for IC50: 3H-Prazosin 0.25 nM, rat brain, 25° C., 20 min, read-out: Receptor Binding, IC50 α1 3H-Praz. The method, then:
INHIBITION OF ^3 H-PRAZOSIN BINDING TO α1 ADRENOCEPTORS IN RAT BRAIN IN VITRO
Method and results in Hyttel & Larsen, J. Neurochem, 44, 1615-1622, 1985; Skarsfeldt & Hyttel, Eur. J. Pharmacol. 125, 323-340, 1986.
Male Wistar (Mol:Wist) rats (125-200 g) are sacrificed and brain tissue is dissected and weighed. The tissue is homogenized (Ultra Turrax, 10 sec.) in 10 ml of ice-cold […] Tris buffer pH 7,7 (at 25° C.). The homogenate is centrifuged twice at 20,000 g for 10 min. at 4° C. with rehomogenization of the pellet in 10 ml ice-cold buffer. The final pellet is homogenized in 400 vol (w/v) ice-cold buffer.
Incubation tubes kept on ice in triplicate receive 100 μl of drug solution in water (or water for total binding) and 4000μl of tissue suspension (final tissue content corresponds to 10 mg original tissue). The binding experiment is initiated by addition of 100 μl of ^3 H-Prazosin (final concentration 0.25 nM) and by placing the tubes in a 25° C. water bath. After incubation for 20 min. the samples are filtered under vacuum (0-50 mBar) through Whatman GF/F filters (25 mm). The tubes are rinsed with 5 ml ice-cold buffer which then are poured on the filters. Thereafter, the filters are washed with 5 ml of buffer. The filters are placed in counting vials and 4 ml of appropriate scintillation fluid (e.g. Picofluor™15) are added. After shaking for 1 h and storage 2 hrs in the dark the content of radioactivity is determined by liquid scintillation counting. Specific binding is obtained by subtracting the nonspecific binding in the presence of 1 μM of Prazosin.
as §1
The measured cpm are plotted against drug concentration on semilogarithmic paper and the best fitting S-shaped curve is drawn. The IC50 value is determined as the concentration at which the binding is 50% of the total binding in control samples minus the nonspecific binding in the presence of 1 μM of Prazosin.
^3 H-Prazosin=[furoyl-5-^3 H]-Prazosin from New England Nuclear, specific activity approximately 20 Ci/mmol.

T2 sequence (P61169 whole entry): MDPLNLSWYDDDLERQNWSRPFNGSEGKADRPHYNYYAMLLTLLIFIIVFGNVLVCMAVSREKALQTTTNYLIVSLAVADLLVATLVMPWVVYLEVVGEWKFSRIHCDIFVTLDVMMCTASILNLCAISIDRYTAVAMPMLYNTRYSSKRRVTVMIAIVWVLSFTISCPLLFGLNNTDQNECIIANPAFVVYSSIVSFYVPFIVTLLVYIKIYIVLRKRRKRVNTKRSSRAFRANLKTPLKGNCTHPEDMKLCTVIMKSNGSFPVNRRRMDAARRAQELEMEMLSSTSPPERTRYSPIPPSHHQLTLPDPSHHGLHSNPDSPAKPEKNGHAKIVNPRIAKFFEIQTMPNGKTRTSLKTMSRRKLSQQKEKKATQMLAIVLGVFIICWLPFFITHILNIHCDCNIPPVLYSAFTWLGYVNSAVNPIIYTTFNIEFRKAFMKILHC
T1 sequence (P14842 whole entry): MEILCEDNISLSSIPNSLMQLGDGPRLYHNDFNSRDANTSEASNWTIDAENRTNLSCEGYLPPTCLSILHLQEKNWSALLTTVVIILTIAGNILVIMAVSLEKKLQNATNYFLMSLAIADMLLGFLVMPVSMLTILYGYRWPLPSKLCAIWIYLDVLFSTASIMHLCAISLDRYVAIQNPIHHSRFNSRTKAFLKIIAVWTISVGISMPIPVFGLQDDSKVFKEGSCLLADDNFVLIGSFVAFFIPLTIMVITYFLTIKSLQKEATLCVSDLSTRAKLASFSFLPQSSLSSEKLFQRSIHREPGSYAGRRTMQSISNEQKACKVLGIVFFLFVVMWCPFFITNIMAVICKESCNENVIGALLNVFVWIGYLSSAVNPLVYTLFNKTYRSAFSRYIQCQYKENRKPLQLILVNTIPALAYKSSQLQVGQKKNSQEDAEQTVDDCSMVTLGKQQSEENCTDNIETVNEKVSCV

Regarding `OCCN1CCN([C@@H]2C[C@@H](c3ccc(F)cc3)c3ccc(C(F)(F)F)cc32)CC1` (racemic) [Tefludazine, reference compound], at 5-HT2 receptors, the “affinity to 5-HT2 receptors (in words)” value is “high affinity to all three receptor types” and the IC50 turned out to be 4.6 nM. Moreover, at dopamine D-2 receptors, the “affinity to D-2 receptors (in words)” value is “high affinity to all three receptor types” and the IC50 stood at 10 nM. In the assay on α1 adrenoceptors, the “affinity to α1 adrenoceptors (in words)” value is “high affinity to all three receptor types” and the IC50 was determined as 17 nM.
Turning to `O=C1NCCN1CCN1CCN([C@H]2C[C@H](c3ccc(F)cc3)c3cc(C(F)(F)F)ccc32)CC1` (relative stereo) [Compound 1, Trans-1-[2-[4-[3-(4-fluorophenyl)-5-(trifluoromethyl)-2,3-dihydro-1H-inden-11-yl]-1-piperazinyl]ethyl]-2-imidazolidinone], the IC50 on 5-HT2 receptors stood at 2.9 nM; at dopamine D-2 receptors, 760 nM; at α1 adrenoceptors, 320 nM.
With `OCCN1CCN([C@@H]2C[C@@H](c3ccc(F)cc3)c3cc(Cl)ccc32)CC1` (relative stereo) [Compound 3, Trans-4-[5-chloro-3-(4-fluorophenyl)-2,3-dihydro-1H-inden-1-yl)-1-piperazine-ethanol], the IC50 was determined as 25 nM on 5-HT2 receptors, 2200 nM at dopamine D-2 receptors and 230 nM on α1 adrenoceptors.
For the molecule `OCCN1CCN([C@@H]2C[C@@H](c3ccc(F)cc3)c3cc(C(F)(F)F)ccc32)CC1` (relative stereo) [Compound 5, Trans-4-[3-(4-fluorophenyl)-5-(trifluoromethyl)-2,3-dihydro-1H-inden-1-yl]-1-piperazineethanol], the IC50 at 5-HT2 receptors amounted to 8.9 nM; at dopamine D-2 receptors, 1300 nM; on α1 adrenoceptors, 380 nM.
On to `Cc1cc([C@@H]2C[C@@H](N3CCN(CCO)CC3)c3ccc(Cl)cc32)cs1` (relative stereo) [Compound 6, Trans-4-[5-chloro-3-(2-methyl-4-thienyl)-2,3-dihydro-1H-inden-1-yl]-1-piperazineethanol], for which the IC50 on 5-HT2 receptors turned out to be 56 nM; at dopamine D-2 receptors it was 2600 nM; on α1 adrenoceptors it was 1000 nM.
`Cc1cc([C@@H]2C[C@@H](N3CCN(CCN4CCNC4=O)CC3)c3ccc(Cl)cc32)cs1` (relative stereo) [Compound 7, Trans-1-[2-[4-[5-chloro-3-(2-methyl-4-thienyl)-2,3-dihydro-1H-inden-1-yl]piperazine-1-yl]ethyl]-2-imidazolidinone]: the IC50 on 5-HT2 receptors stood at 7.9 nM; on dopamine D-2 receptors it was 2800 nM; at α1 adrenoceptors, 240 nM.
On to `Cc1ccc2c(c1)[C@@H](c1ccc(F)cc1)C[C@@H]2N1CCN(CCO)CC1` (relative stereo) [Compound 8, Trans-4-[3-(4-fluorophenyl)-5-methyl-2,3-dihydro-1H-inden-1-yl]-1-piperazine ethanol], for which the IC50 was determined as 12 nM at 5-HT2 receptors, 1000 nM on dopamine D-2 receptors and 270 nM on α1 adrenoceptors.
With `Cc1ccc2c(c1)[C@H](c1ccc(F)cc1)C[C@H]2N1CCN(CCN2CCNC2=O)CC1` (relative stereo) [Compound 9, Trans-1-[2-[4-[3-(4-fluorophenyl)-5-methyl-2,3-dihydro-1H-inden-1-yl]piperazine-1-yl]ethyl]-2-imidazolidinone], the IC50 on 5-HT2 receptors is 3.7 nM; at dopamine D-2 receptors, 370 nM; at α1 adrenoceptors, 220 nM.
On the same counts, the results for `Fc1ccc([C@@H]2C[C@@H](N3CCNCC3)c3ccc(Cl)cc32)cc1` (relative stereo) [Compound 10, Trans-1-[5-chloro-3-(4-fluorophenyl)-2,3-dihydro-1H-inden-1-yl]piperazine] are 11 nM, 2500 nM and 840 nM.
The like results for `CC(C)N1CCN(CCN2CCN([C@@H]3C[C@@H](c4ccc(F)cc4)c4cc(Cl)ccc43)CC2)C1=O` (relative stereo) [Compound 11, Trans-1-[2-[4-[5-chloro-3-(4-fluorophenyl)-2,3-dihydro-1H-inden-1-yl]piperazin-1-yl]-ethyl]-3-isopropyl-2-imidazolidinone] were, in that order, 3.9 nM, 280 nM and 260 nM.
With `CC(C)N1CCN(CCN2CCN([C@@H]3C[C@@H](c4ccc(F)cc4)c4cc(C(F)(F)F)ccc43)CC2)C1=O` (relative stereo) [Compound 13, Trans-1-[2-[4-[3-(4-fluorophenyl)-5-(trifluoromethyl)-2,3-dihydro-1H-inden-1-yl]piperazin-1-yl]ethyl]-3-isopropyl-2-imidazolidinone], the IC50 on 5-HT2 receptors came to 3.7 nM; at dopamine D-2 receptors it was 510 nM; on α1 adrenoceptors it was 350 nM.
On to `O=C1NCCN1CCN1CCN([C@@H]2C[C@@H](c3ccc(F)cc3)c3ccc(C(F)(F)F)cc32)CC1` (relative stereo) [Compound 39, reference compound], for which the IC50 at dopamine D-2 receptors came to 21 nM; at α1 adrenoceptors, 8.3 nM.
The like results for `O=C1NCCN1CCN1CCN([C@@H]2C[C@@H](c3ccc(F)cc3)c3ccc(Cl)cc32)CC1` (relative stereo) [Compound 41, reference compound] were, in that order, 17 nM and 3.1 nM.
Consider `Fc1ccc([C@H]2C[C@H](N3CCNCC3)c3ccc(Cl)cc32)cc1` (single isomer, unassigned) [(+)-10], for which the figures for the IC50 at 5-HT2 receptors and on dopamine D-2 receptors were 3300 nM and 28000 nM, respectively.
Regarding `O=C1NCCCN1CCN1CCN([C@@H]2C[C@@H](c3ccc(F)cc3)c3cc(F)ccc32)CC1` (single isomer, unassigned) [(-)-33, (-)-Trans-1-[2-[4-[5-fluoro-3-(4-fluorophenyl)-2,3-dihydro-1H-inden-1-yl]piperazin-1-yl]ethyl]-tetrahydro-2(1H)-pyrimidinone], the IC50 came to 57 nM at 5-HT2 receptors and 4600 nM on dopamine D-2 receptors.

Source of the values: patent publication US5643784A, “Indan derivatives” (H, Lundbeck A/S, priority 1990, dated 1997).
